Test results from ChEMBL document CHEMBL1138982 (Bioorg Med Chem Lett, 2006).

Columns and labels:
Substance-P receptor = Substance-P receptor (Homo sapiens, UniProt P25103); assay: Displacement of [3H]-labeled substance P from cloned human NK1 receptor expressed in CHO cells; format: cell-based
Gerbil, jird = assay: Inhibition of GR-73632 induced foot tapping in gerbil, po; format: functional; details: Meriones, read-out: ID50 (the source's name)

Chain of Substance-P receptor (P25103 whole entry): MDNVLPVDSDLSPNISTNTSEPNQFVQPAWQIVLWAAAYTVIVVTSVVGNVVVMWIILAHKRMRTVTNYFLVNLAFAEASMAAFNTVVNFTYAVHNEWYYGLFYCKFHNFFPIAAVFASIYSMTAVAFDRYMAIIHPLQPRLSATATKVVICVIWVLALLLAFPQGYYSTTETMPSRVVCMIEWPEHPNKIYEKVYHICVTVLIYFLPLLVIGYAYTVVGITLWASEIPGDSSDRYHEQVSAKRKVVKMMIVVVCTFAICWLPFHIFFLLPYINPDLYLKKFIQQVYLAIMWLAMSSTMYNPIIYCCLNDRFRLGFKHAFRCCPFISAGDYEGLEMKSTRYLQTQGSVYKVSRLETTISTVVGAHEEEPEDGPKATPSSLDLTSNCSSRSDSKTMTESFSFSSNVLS

| SMILES | Ki (Substance-P receptor) | ED50 (Gerbil, jird) |
| --- | --- | --- |
| Cc1ccccc1-c1cc(N2CCN(C)CC2)ncc1N(C)C(=O)C(C)(C)c1cc(C(F)(F)F)cc(C(F)(F)F)c1 [NETUPITANT] | 0.95 nM | 0.5 mg/kg |
| Cc1ccccc1-c1cc(N2CCOCC2)ncc1N(C)C(=O)C(C)(C)c1cc(C(F)(F)F)cc(C(F)(F)F)c1 [BEFETUPITANT] | – | 0.2 mg/kg |
| Cc1ccccc1-c1cc(N2CCN(C)CC2)ccc1C(=O)N(C)Cc1cc(C(F)(F)F)cc(C(F)(F)F)c1 | 1.4 nM | – |
| CN(Cc1cc(C(F)(F)F)cc(C(F)(F)F)c1)C(=O)c1ccccc1-c1ccccc1Cl | 22 nM | – |
| O=C(NCc1cc(C(F)(F)F)cc(C(F)(F)F)c1)c1ccccc1-c1ccccc1 | > 10000 nM | – |
| CN(Cc1cc(C(F)(F)F)cc(C(F)(F)F)c1)C(=O)c1ccccc1-c1ccccc1Br | 45 nM | – |
| Cc1ccccc1-c1nc(N2CCN(C)CC2)ncc1C(=O)N(C)Cc1cc(C(F)(F)F)cc(C(F)(F)F)c1 | 1.7 nM | – |
| Cc1ccccc1-c1cc(N2CCS(=O)(=O)CC2)ncc1N(C)C(=O)C(C)(C)c1cc(C(F)(F)F)cc(C(F)(F)F)c1 | 1.3 nM | 0.8 mg/kg |
| Cc1ccccc1-c1cccnc1N(C)C(=O)C(C)(C)c1cc(C(F)(F)F)cc(C(F)(F)F)c1 | 4 nM | – |
| CN(Cc1cc(C(F)(F)F)cc(C(F)(F)F)c1)Cc1ccccc1-c1ccccc1 | 724 nM | – |
| FC(F)(F)c1cc(CNCc2ccccc2-c2ccccc2)cc(C(F)(F)F)c1 | 372 nM | – |
| Cc1ccccc1-c1cnccc1N(C)C(=O)C(C)(C)c1cc(C(F)(F)F)cc(C(F)(F)F)c1 | 3.3 nM | – |
| Cc1ccccc1-c1ccc(N2CCN(C)CC2)nc1N(C)C(=O)C(C)(C)c1cc(C(F)(F)F)cc(C(F)(F)F)c1 | 2 nM | – |
| Cc1ccccc1-c1ccccc1/C=N/Nc1c(Cl)cncc1Cl | 316 nM | – |
| Clc1ccccc1-c1ccccc1/C=N/Nc1c(Cl)cncc1Cl | 174 nM | – |
| Cc1ccccc1-c1nc(N2CCN(C)CC2)ncc1N(C)C(=O)C(C)(C)c1cc(C(F)(F)F)cc(C(F)(F)F)c1 | 0.44 nM | – |
| Cc1ccccc1-c1cnc(N2CCN(C)CC2)cc1N(C)C(=O)C(C)(C)c1cc(C(F)(F)F)cc(C(F)(F)F)c1 | 1.7 nM | – |

| SMILES | Ki (Substance-P receptor) | ED50 (Gerbil, jird) |
| --- | --- | --- |
| CN(Cc1cc(C(F)(F)F)cc(C(F)(F)F)c1)C(=O)c1ccccc1-c1ccccc1 | 51 nM | – |
| CN(C(=O)Cc1cc(C(F)(F)F)cc(C(F)(F)F)c1)c1ccccc1-c1ccccc1 | 562 nM | – |
| FC(F)(F)c1cc(COCc2ccccc2-c2ccccc2)cc(C(F)(F)F)c1 | 224 nM | – |
| Cc1ccccc1-c1cc(N2CCC(O)CC2)ncc1N(C)C(=O)C(C)(C)c1cc(C(F)(F)F)cc(C(F)(F)F)c1 | 0.4 nM | 0.5 mg/kg |
| Cc1ccccc1-c1cnccc1C(=O)N(C)Cc1cc(C(F)(F)F)cc(C(F)(F)F)c1 | 4.6 nM | – |
| CN(C(=O)C(C)(C)c1cc(C(F)(F)F)cc(C(F)(F)F)c1)c1ccccc1-c1ccccc1 | 68 nM | – |
| Cc1ccccc1-c1ccc(N2CCN(C)CC2)nc1C(=O)N(C)Cc1cc(C(F)(F)F)cc(C(F)(F)F)c1 | 6.2 nM | – |
| Cc1ccccc1-c1cccnc1C(=O)N(C)Cc1cc(C(F)(F)F)cc(C(F)(F)F)c1 | 3.8 nM | – |
| Clc1cncc(Cl)c1N/N=C/c1ccccc1-c1ccccc1Br | 49 nM | – |
| Cc1onc(-c2c(Cl)cccc2Cl)c1/C=N/Nc1c(Cl)cncc1Cl | 15 nM | – |
| CN(C(=O)c1ccccc1-c1ccccc1)C(C)(C)c1cc(C(F)(F)F)cc(C(F)(F)F)c1 | 295 nM | – |
| Clc1cncc(Cl)c1N/N=C/c1ccccc1-c1c(Cl)cccc1Cl | 93 nM | – |
| Cc1ccccc1-c1cnc(N2CCN(C)CC2)nc1N(C)C(=O)C(C)(C)c1cc(C(F)(F)F)cc(C(F)(F)F)c1 | 1.1 nM | – |
| Clc1cncc(Cl)c1N/N=C/c1ccccc1-c1ccccc1 | 933 nM | – |
| Cc1ccccc1-c1ccncc1C(=O)N(C)Cc1cc(C(F)(F)F)cc(C(F)(F)F)c1 | 8.5 nM | – |
| CC(C)(NC(=O)c1ccccc1-c1ccccc1)c1cc(C(F)(F)F)cc(C(F)(F)F)c1 | > 10000 nM | – |
